Laboratory results as given in publication PMC5026937 (Antiviral research, 2016).
Entries after “also recorded” stand apart in the source; their conditions may differ.

Legend:
A/WSN/33 (H1N1) [1] = type: cell-based
A/Udorn/72 (H3N2) = type: cell-based
A/WSN/33 (H1N1) [2] = type: cell-based, Influenza A virus
A/Texas/04/2009 (H1N1) = type: cell-based
[3] = system: B/Brisbane/60/2008 (Victoria); type: cell-based
[4] = system: B/Wisconsin/1/2010 (Yamagata); type: cell-based
[5] = system: A/Denmark/524/2009 (H1N1); type: cell-based
[6] = system: A/Switzerland/9715293/2013 (H3N2); type: cell-based
[7] = system: B/Phuket/3073/2013 (Yamagata); type: cell-based
[8] = system: A/Denmark/528/2009 (H1N1); type: cell-based
[9] = system: A/California/07/2009 (H1N1); type: cell-based
[10] = target: A/WSN/33 (H1N1) viral polymerase activity (Influenza A virus, UniProt P15682); type: cell-based, influenza A/WSN/33 virus
A/WSN/33 (H1N1) viral polymerase activity, sequence (P15682 whole entry, looked up): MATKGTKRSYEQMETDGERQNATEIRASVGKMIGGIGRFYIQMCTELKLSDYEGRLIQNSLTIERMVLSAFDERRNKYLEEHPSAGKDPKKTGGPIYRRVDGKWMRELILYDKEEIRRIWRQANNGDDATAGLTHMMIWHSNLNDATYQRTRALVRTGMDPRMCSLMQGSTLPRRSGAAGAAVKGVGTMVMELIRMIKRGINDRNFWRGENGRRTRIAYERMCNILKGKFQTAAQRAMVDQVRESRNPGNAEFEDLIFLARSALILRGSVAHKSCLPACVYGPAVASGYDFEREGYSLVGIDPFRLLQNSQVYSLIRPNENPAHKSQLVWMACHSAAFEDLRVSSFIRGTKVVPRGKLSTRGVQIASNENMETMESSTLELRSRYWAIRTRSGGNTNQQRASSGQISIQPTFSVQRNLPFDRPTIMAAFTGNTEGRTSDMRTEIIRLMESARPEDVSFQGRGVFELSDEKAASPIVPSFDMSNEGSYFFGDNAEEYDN

[11] = system: clinically isolated influenza A and B viruses; type: cell-based
[12] = system: isomerase activity of CypA; settings: ref Ni et al., 2009; cited from earlier work

Row | Molecule | Sensitivity of influenza strain to drug (A/Udorn/72 (H3N2)) | Sensitivity of influenza strain to drug (A/Texas/04/2009 (H1N1)) | Sensitivity of influenza strain to drug (A/WSN/33 (H1N1) [1]) | Sensitivity of influenza strain to drug [3] | Sensitivity of influenza strain to drug [4] | Sensitivity of influenza strain to drug [5] | Sensitivity of influenza strain to drug [6] | Sensitivity of influenza strain to drug [7] | Sensitivity of influenza strain to drug [8] | Sensitivity of influenza strain to drug [9] | other results
1 | Cyclosporine C [CsC (3)] | – | – | – | – | – | – | – | – | – | – | antiviral efficacy against A/WSN/33 (H1N1) compared with CsA (1) (A/WSN/33 (H1N1) [1]): less active; also recorded: slightly less effective than CsA (1)
2 | CCC(CC)O[C@@H]1C=C(C(=O)O)C[C@H](N)[C@H]1NC(C)=O [Oseltamivir carboxylate, oseltamivir carboxylate] | S | R (H275Y) | S | S | S | S | S | S | R (H275Y) | S | antiviral effect by time of addition (A/WSN/33 (H1N1) [2]): potent antiviral effect even when added 8 hours post initial viral infection
3 | Cc1onc(-c2ccccc2)c1C(=O)N1CCN(c2ccc([N+](=O)[O-])cc2Cl)CC1 [nucleozin (21), nucleozin] | – | – | – | – | – | – | – | – | – | – | viral polymerase activity (normalized luciferase ratio) [10]: completely inhibited the viral polymerase activity
4 | O=C(NC(=O)c1c(F)cccc1Cl)NC1c2ccccc2-c2ccccc21 [TMN355 (2)] | – | – | – | – | – | – | – | – | – | – | effect on replication of several influenza A and B strains [11]: had no effect on the replication; potency in inhibiting the isomerase activity of CypA relative to CsA (1) [12]: 27 times
5 | NC12CC3CC(CC(C3)C1)C2 [Amantadine, amantadine] | S | R (S31N) | R (S31N) | R | R | R(S31N) | R (S31N) | R | R (S31N) | R (S31N) | –
